Legend:
[1] = test system: tumor endothelial cells (LL/2 lung cancer tumor); test: Lung LL2 ex vivo model of tumor angiogenesis; assay type: cell-based, mouse; conditions: for cytotoxicity at 40 µM: Mus musculus, Endothelial cell, 48 h, read-out: Cell death
Method in brief: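 Mouse LL2 tumor fragments (~0.5×0.5×0.3 mm) embedded in Matrigel and grown in endothelial growth medium at 37° C until endothelial outgrowth (about 4 days) before drug treatment. About 48 h after drug addition, stained 10 min with fluorescein diacetate/propidium iodide; live (green) and dead (red) cells imaged at 2× with fixed channel settings.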

[2] = test system: tumor endothelial cells (CT26.CL25 colon cancer tumor); test: Colon CT26 ex vivo model of tumor angiogenesis; assay type: cell-based; conditions: Mus musculus, CT26, 48 h, read-out: Cell death
Description: This example describes a procedure to prepare a primary tumor angiogenesis model for assessing the efficacy of anti-cancer candidate agents.
1. The day before the experiment, spray all necessary tools with 70% ethanol and sterilize them under UV light overnight, including blade, dissecting and micro-dissecting scissors and […]. Place 24-well dishes at 4° C. to pre-chill plates and thaw Matrigel 24 hours before tumor dissection.
2. Spray 70% ethanol on working bench. Prepare two sterile petri dishes with 10 mL sterile PBS. Steps 3 and 4 are for mouse tumor models. For fresh human tumor, directly go to step 5.
3. Euthanize the tumor-bearing mice. Spray 70% ethanol on the mouse and remove the tumor using sterilized dissecting tools (avoid the fur). Rinse the tumor in petri dish with sterile PBS to remove ethanol and fur. Transfer the tumor to a new petri dish with PBS for dissection. Place the dish on ice.
4. Using pre-chilled sterile pipet tips to seed regular Matrigel in 24 well plates on ice. Matrigel (30 μL) is dropped in the middle of each well without touching the edge of the well (avoid introducing bubbles if possible).
5. Cut the tumor in halves using the sterile blade. Identify and isolate healthy tumor tissue that is not necrotic and is within the tumor capsule. Cut the healthy tumor tissue into small pieces. For instance, a suitable size for the tumor tissue is 0.5 mm (H)×0.5 mm (L)×0.3 mm (D) with a total volume of 0.075 mm^3.
6. Gently transfer and embed each tumor piece in the Matrigel drop in the 24-well plate. Place the embedded piece in the bottom and middle of each Matrigel drop. Keep the plate on ice all the time.
7. After seeding the tumor pieces, plates are incubated in a 37° C. cell culture incubator without medium for 10 minutes in order for the Matrigel to solidify.
8. Endothelial Growth Medium (0.5 mL) is added to each well and incubated at 37° C. with 5% CO2. Wait until the new endothelial cells have grown out of the tumor or are larger than 3 mm in diameter until treatment. This usually takes 4 days for the LL2 Lewis lung cancer model and 7 days for the CT26 colon cancer model. For human tumor models, the growth time is typically 2-3 weeks, depending on the tumor type. Media is changed every 4 days during prolonged culture. Typically, when the tumor tissue grows to 2 mm in diameter, it is good for drug testing. A size of about 3 mm in diameter can make visualization easier.
9. When the assay is ready to be analyzed for cell death (e.g., 48 hours after drug addition), prepare the dye mixture by mixing 6 μL of green dye to stain live cells (5 mg/mL Fluorescein diacetate or FDA in DMSO) with 30 μL of red dye (2.5 mg/mL Propidium iodide or PI in PBS) to stain dead cells in an Eppendorf tube. The FDA dye needs to be stored frozen in a −20° C. freezer because it has a labile ester bond.
10. Add 1 μL of the dye mixture to each well of the 24-well dish. It is usually performed one 24-well dish at a time given the amount of time needed to take pictures (the green dye is not as stable in the cells in the long term).
11. Gently rock the dish a few times to mix the dye with the media in the wells and incubate the dish at 37° C. for 10 min (too long incubation can make the green signal too intense).
12. Wash each well with 0.5 mL of sterile PBS and then add 0.5 mL of phenol red free SFM to each well. Alternatively 0.5 mL of regular Endothelial Cell Growth Media can be added to each well if this well needs to be continuously maintained after the experiment.
13. Look through all wells on an inverted microscope using the 2× objective lens to observe morphological changes.
14. Taking pictures in the red and green channels would allow not only the recording of the result but also more accurate quantitation of the result. To take pictures for all the wells, first pick a well that has robust red and green signals. […]

Compound | cytotoxicity at 40 µM [1] [%] | cytotoxicity at 40 µM [2] [%] | Cell death ([1]; Lung LL2 ex vivo, Conc. 40 μm, drug treatment two days) [%]
COc1ccc(S(=O)(=O)c2cnc3ccc(OC(F)(F)F)cc3c2N2CCC(O)CC2)cc1 [compound 44, 1-(3-((4-methoxyphenyl)sulfonyl)-6-(trifluoromethoxy)quinolin-4-yl)piperidin-4-ol] | 50 | 0 | –
CCc1ccc(S(=O)(=O)c2cnc3ccc(OC(F)(F)F)cc3c2N2CCN(c3ccc(C#N)cc3)CC2)cc1 [compound 45, 4-(4-(3-((4-ethylphenyl)sulfonyl)-6-(trifluoromethoxy)quinolin-4-yl)piperazin-1-yl)benzonitrile] | – | 0 | 10
CCc1ccc(S(=O)(=O)c2cnc3ccc(OC(F)(F)F)cc3c2N2CCC(N3CCCC3)CC2)cc1 [compound 46, 3-((4-ethylphenyl)sulfonyl)-4-(4-(pyrrolidin-1-yl)piperidin-1-yl)-6-(trifluoromethoxy)quinoline] | 100 | 100 | –
CCOC(=O)C1CCN(c2c(S(=O)(=O)c3ccc(CC)cc3)cnc3ccc(OC(F)(F)F)cc23)CC1 [compound 47, ethyl 1-(3-((4-ethylphenyl)sulfonyl)-6-(trifluoromethoxy)quinolin-4-yl)piperidine-4-carboxylate] | 50 | 10 | –
CCc1ccc(S(=O)(=O)c2cnc3ccc(OC(F)(F)F)cc3c2N2CCC(CO)CC2)cc1 [compound 48, (1-(3-((4-ethylphenyl)sulfonyl)-6-(trifluoromethoxy)quinolin-4-yl)piperidin-4-yl)methanol] | 60 | 10 | –
CCc1ccc(S(=O)(=O)c2cnc3ccc(OC(F)(F)F)cc3c2N(C)Cc2ccccc2)cc1 [compound 49, N-benzyl-3-((4-ethylphenyl)sulfonyl)-N-methyl-6-(trifluoromethoxy)quinolin-4-amine] | 30 | 10 | –
CCc1ccc(S(=O)(=O)c2cnc3ccc(OC(F)(F)F)cc3c2NN2CCN(C)CC2)cc1 [compound 50, 3-((4-ethylphenyl)sulfonyl)-N-(4-methylpiperazin-1-yl)-6-(trifluoromethoxy)quinolin-4-amine] | 90 | 100 | –
CCc1ccc(S(=O)(=O)c2cnc3ccc(OC(F)(F)F)cc3c2-n2cncn2)cc1 [compound 51, 3-((4-ethylphenyl)sulfonyl)-4-(1H-1,2,4-triazol-1-yl)-6-(trifluoromethoxy)quinoline] | 100 | 20 | –
CCc1ccc(S(=O)(=O)c2cnc3ccc(OC(F)(F)F)cc3c2N2CCC3(CC2)OCCO3)cc1 [compound 52, 8-(3-((4-ethylphenyl)sulfonyl)-6-(trifluoromethoxy)quinolin-4-yl)-1,4-dioxa-8-azaspiro[4.5]decane] | 50 | 0 | –
N#Cc1ccc(S(=O)(=O)c2cnc3ccc(OC(F)(F)F)cc3c2N2CCC(N3CCCCC3)CC2)cc1 [compound 54, 4-((4-([1,4′-bipiperidin]-1′-yl)-6-(trifluoromethoxy)quinolin-3-yl)sulfonyl)benzonitrile] | 50 | 10 | –
CCc1ccc(S(=O)(=O)c2cnc3ccc(CC#N)cc3c2N2CCC(N3CCCCC3)CC2)cc1 [compound 55, 2-(4-([1,4′-bipiperidin]-1′-yl)-3-((4-ethylphenyl)sulfonyl)quinolin-6-yl)acetonitrile] | 70 | 50 | –
COc1ccc(S(=O)(=O)c2cnc3ccc(OC(F)(F)F)cc3c2N2CCC(N3CCCCC3)CC2)cc1OC [compound 56, 4-([1,4′-bipiperidin]-1′-yl)-3-((3,4-dimethoxyphenyl)sulfonyl)-6-(trifluoromethoxy)quinoline] | 20 | 30 | –
COc1ccc(S(=O)(=O)c2cnc3ccc(OC(F)(F)F)cc3c2N2CCCN(C)CC2)cc1OC [compound 57, 3-((3,4-dimethoxyphenyl)sulfonyl)-4-(4-methyl-1,4-diazepan-1-yl)-6-(trifluoromethoxy)quinoline] | 40 | 60 | –
COc1ccc(S(=O)(=O)c2cnc3ccc(OC(F)(F)F)cc3c2N2CCC(O)CC2)cc1OC [compound 58, 1-(3-((3,4-dimethoxyphenyl)sulfonyl)-6-(trifluoromethoxy)quinolin-4-yl)piperidin-4-ol] | 50 | 50 | –
O=[N+]([O-])c1ccc(S(=O)(=O)c2cnc3ccc(OC(F)(F)F)cc3c2N2CCC(N3CCCCC3)CC2)cc1 [compound 59, 4-([1,4′-bipiperidin]-1′-yl)-3-((4-nitrophenyl)sulfonyl)-6-(trifluoromethoxy)quinoline] | 40 | 50 | –
O=[N+]([O-])c1ccc(S(=O)(=O)c2cnc3ccc(OC(F)(F)F)cc3c2N2CCC(O)CC2)cc1 [compound 61, 1-(3-((4-nitrophenyl)sulfonyl)-6-(trifluoromethoxy)quinolin-4-yl)piperidin-4-ol] | 50 | 20 | –
CCOC(=O)c1ccc2ncc(S(=O)(=O)c3ccc(CC)cc3)c(N3CCC(O)CC3)c2c1 [compound 62, ethyl 3-((4-ethylphenyl)sulfonyl)-4-(4-hydroxypiperidin-1-yl)quinoline-6-carboxylate] | 30 | 70 | –
CCOC(=O)c1ccc2ncc(S(=O)(=O)c3ccc(CC)cc3)c(N3CCCN(C)CC3)c2c1 [compound 63, ethyl 3-((4-ethylphenyl)sulfonyl)-4-(4-methyl-1,4-diazepan-1-yl)quinoline-6-carboxylate] | 50 | 70 | –
CCOC(=O)c1ccc2ncc(S(=O)(=O)c3ccc(CC)cc3)c(N3CCC(N4CCCCC4)CC3)c2c1 [compound 64, ethyl 4-([1,4′-bipiperidin]-1′-yl)-3-((4-ethylphenyl)sulfonyl)quinoline-6-carboxylate] | 100 | 100 | –
CCc1ccc(S(=O)(=O)c2cnc3ccc(C(=O)O)cc3c2N2CCC(O)CC2)cc1 [compound 65, 3-((4-ethylphenyl)sulfonyl)-4-(4-hydroxypiperidin-1-yl)quinoline-6-carboxylic acid] | 10 | 0 | –
CCc1ccc(S(=O)(=O)c2cnc3ccc(C(=O)O)cc3c2N2CCCN(C)CC2)cc1 [compound 66, 3-((4-ethylphenyl)sulfonyl)-4-(4-methyl-1,4-diazepan-1-yl)quinoline-6-carboxylic acid] | 10 | 0 | –
CCc1ccc(S(=O)(=O)c2cnc3ccc(C(=O)O)cc3c2N2CCC(N3CCCCC3)CC2)cc1 [compound 67, 4-([1,4′-bipiperidin]-1′-yl)-3-((4-ethylphenyl)sulfonyl)quinoline-6-carboxylic acid] | 10 | 0 | –
CCN(CC)c1c(S(=O)(=O)c2ccc(OC)c(OC)c2)cnc2ccc(OC(F)(F)F)cc12 [compound 68, 3-((3,4-dimethoxyphenyl)sulfonyl)-N,N-diethyl-6-(trifluoromethoxy)quinolin-4-amine] | 80 | 50 | –

Source: patent US11884647B2, “Compounds and methods for targeting pathogenic blood vessels” (THE REGENTS OF THE UNIVERSITY OF CALIFORNIA, priority 2019, dated 2024)
